Experimental data taken from ChEMBL document CHEMBL6087420, “Synthesis and pharmacodynamic evaluation of 2-aminoindole derivatives against influenza A virus in vitro/vivo” (Eur J Med Chem, 2025).
Calls of active or inactive are those of the source. No cut-off for these calls is given here.

Key:
[1] = system: Influenza A virus; test: Antiviral activity against influenza A virus infected in human A549 cells assessed as inhibition of IFN-gamma expression by qRT-PCR analysis; assay type: functional, organism-based
[2] = system: Influenza A virus; test: Inhibition of influenza A virus infection induced apoptosis in MDCK cells assessed as early apoptotic cells at 100 uM incubated for 36 hrs by AnnexinV-FITC/PI staining based flow cytometry (reference value: 0.96%); assay type: functional; parameters: scale not given: the % may be the effect or the level left
[3] = system: Influenza A virus; test: Antiviral activity against influenza A virus H1NI (A/Weiss/43) infected in human A549 cells assessed as reduction in viral titers in supernatants at 0.25 to 100 uM; assay type: functional, organism-based; conditions: dose 0.25-100 µM
[4] = system: Influenza A virus; test: In vivo antiviral activity against influenza A virus infected in BALB/c mouse assessed as reduction in IRF3 mRNA level in lung at 25 to 100 mg/kg measured after 6 dpi; assay type: functional, organism-based; conditions: dose 25-100 mg/kg
[5] = Toxicity in healthy BALB/c mouse assessed as pathological change in spleen at 25 to 100 mg/kg administered through gavage for 6 days; assay type: organism-based; conditions: in vivo, po, 144 h, dose 25-100 mg/kg, time 6 day
[6] = system: Influenza A virus; test: Inhibition of influenza A virus infection induced apoptosis in MDCK cells infected with influenza virus assessed as early apoptotic cells at 100 uM incubated for 36 hrs by AnnexinV-FITC/PI staining based flow cytometry (reference value: 18.2%); assay type: functional; parameters: scale not given: the % may be the effect or the level left
[7] = system: Influenza A virus; test: Inhibition of influenza A virus infection induced apoptosis in MDCK cells infected with influenza virus assessed as early apoptotic cells at 25 uM incubated for 36 hrs by AnnexinV-FITC/PI staining based flow cytometry (reference value: 18.2%); assay type: functional; parameters: scale not given: the % may be the effect or the level left
[8] = Toxicity in healthy BALB/c mouse assessed as pathological change in colon at 25 to 100 mg/kg administered through gavage for 6 days; assay type: organism-based; conditions: in vivo, po, 144 h, dose 25-100 mg/kg, time 6 day
[9] = system: Influenza A virus; test: In vivo antiviral activity against influenza A virus infected in BALB/c mouse assessed as reduction in IFN-gamma mRNA level in lung at 25 to 100 mg/kg measured after 6 dpi; assay type: functional, organism-based; conditions: dose 25-100 mg/kg
[10] = system: Influenza A virus; test: Inhibition of influenza A virus infection induced apoptosis in MDCK cells infected with influenza virus assessed as decrease in cleaved caspase 3 at 25 to 100 uM incubated for 36 hrs by Western blot analysis; assay type: functional, organism-based; conditions: dose 25-100 µM
[11] = Toxicity in healthy BALB/c mouse assessed as pathological change in heart at 25 to 100 mg/kg administered through gavage for 6 days; assay type: organism-based; conditions: in vivo, po, 144 h, dose 25-100 mg/kg, time 6 day
[12] = system: Influenza A virus; test: In vivo antiviral activity against influenza A virus infected in BALB/c mouse assessed as decrease in symptoms at 25 to 100 mg/kg; assay type: functional, organism-based; conditions: dose 25-100 mg/kg
[13] = system: Influenza A virus; test: Antiviral activity against influenza A virus H1NI (A/Weiss/43) infected in compound pretreated MDCK cells assessed as reduction in viral absorption; assay type: functional, organism-based
[14] = system: Influenza A virus; test: In vivo antiviral activity against influenza A virus infected in BALB/c mouse assessed as reduction in ASC mRNA level in lung at 25 to 100 mg/kg measured after 6 dpi; assay type: functional, organism-based; conditions: dose 25-100 mg/kg
[15] = system: Influenza A virus; test: In vivo antiviral activity against influenza A virus infected in BALB/c mouse assessed as reduction in IL-6 mRNA level in lung at 25 to 100 mg/kg measured after 6 dpi; assay type: functional, organism-based; conditions: dose 25-100 mg/kg
[16] = system: Influenza A virus; test: Antiviral activity against influenza A virus infected in human A549 cells assessed as inhibition of MAVS expression by qRT-PCR analysis; assay type: functional, organism-based
[17] = system: Influenza A virus; test: Inhibition of influenza A virus infection induced apoptosis in MDCK cells assessed as late apoptotic cells at 100 uM incubated for 36 hrs by AnnexinV-FITC/PI staining based flow cytometry (reference value: 0.70%); assay type: functional; parameters: scale not given: the % may be the effect or the level left
[18] = system: Influenza A virus; test: Antiviral activity against influenza virus infected in A549 cells assessed as inhibition in inflammatory cell invasion; assay type: functional, organism-based
[19] = system: Influenza A virus; test: Inhibition of influenza A virus infection induced apoptosis in MDCK cells infected with influenza virus assessed as upregulation of Bcl2 incubated for 36 hrs by Western blot analysis; assay type: functional, organism-based
[20] = system: Influenza A virus; test: Anti-influenza activity against influenza A virus H1NI (A/Virginia/ATCC2/2009) infected in dog MDCK cells incubated for 72 hrs by MTT assay; assay type: functional, organism-based; conditions: Influenza A virus, H1NI (A/Virginia/ATCC2/2009), MDCK, 72 h
[21] = system: Influenza A virus; test: In vivo antiviral activity against influenza A virus infected in BALB/c mouse assessed as reduction in NLRP-3 mRNA level in lung at 25 to 100 mg/kg measured after 6 dpi; assay type: functional, organism-based; conditions: dose 25-100 mg/kg
[22] = system: Influenza A virus; test: Antiviral activity against influenza A virus infected in A549 cells assessed as decrease in IAV-NP expression at 25 to 100 uM cells pretreated for 48 hrs followed by infected with virus by green fluorescent labelling based confocal microscopy; assay type: functional, organism-based; conditions: dose 25-100 µM
[23] = system: Influenza A virus; test: In vivo antiviral activity against influenza A virus infected in BALB/c mouse assessed as reduction in apoptotic cells at 25 to 100 mg/kg measured after 6 dpi by TUNEL assay; assay type: functional, organism-based; conditions: dose 25-100 mg/kg
[24] = system: Influenza A virus; test: Inhibition of influenza A virus infection induced apoptosis in MDCK cells infected with influenza virus assessed as early apoptotic cells at 50 uM incubated for 36 hrs by AnnexinV-FITC/PI staining based flow cytometry (reference value: 18.2%); assay type: functional; parameters: scale not given: the % may be the effect or the level left
[25] = system: Influenza A virus; test: Antiviral activity against influenza A virus infected in human A549 cells assessed as inhibition of IL-6 expression by qRT-PCR analysis; assay type: functional, organism-based
[26] = Cytotoxicity against human A549 cells assessed as toxicity after 72 hrs of incubation by MTT assay; assay type: cell-based
[27] = system: Influenza A virus; test: Antiviral activity against influenza A virus infected in A549 cells assessed as decrease in IAV-NP expression pretreated for 48 hrs followed by infected with virus by Western blotting analysis; assay type: functional, organism-based; conditions: dose 25-100 µM
[28] = system: Influenza A virus; test: Antiviral activity against influenza A virus infected in human A549 cells assessed as inhibition of TLR3 expression by qRT-PCR analysis; assay type: functional, organism-based
[29] = system: Influenza A virus; test: In vivo antiviral activity against influenza A virus infected in BALB/c mouse assessed as reduction in OAS1 mRNA level in lung at 25 to 100 mg/kg measured after 6 dpi; assay type: functional, organism-based; conditions: dose 25-100 mg/kg
[30] = Toxicity in healthy BALB/c mouse assessed as pathological change in liver at 25 to 100 mg/kg administered through gavage for 6 days; assay type: organism-based; conditions: in vivo, po, 144 h, dose 25-100 mg/kg, time 6 day
[31] = system: Influenza A virus; test: Antiviral activity against influenza A virus H1NI (A/Weiss/43) infected in MDCK cells assessed as reduction in IAV-NP mRNA by qRT-PCR assay; assay type: functional, organism-based
[32] = system: Influenza A virus; test: In vivo antiviral activity against influenza A virus infected in BALB/c mouse assessed as reduction in lung index at 25 to 100 mg/kg; assay type: functional, organism-based; conditions: dose 25-100 mg/kg
[33] = system: Influenza A virus; test: In vivo antiviral activity against influenza A virus infected in BALB/c mouse assessed as reduction in IAV-NP mRNA level in lung at 25 to 100 mg/kg measured after 6 dpi; assay type: functional, organism-based; conditions: dose 25-100 mg/kg
[34] = system: Influenza A virus; test: Antiviral activity against influenza A virus infected in human A549 cells assessed as inhibition of IRF3 expression by qRT-PCR analysis; assay type: functional, organism-based
[35] = system: Influenza A virus; test: Antiviral activity against influenza A virus infected in A549 cells assessed as decrease in IAV-M2 expression at 25 to 100 uM cells pretreated for 48 hrs followed by infected with virus by green fluorescent labelling based confocal microscopy; assay type: functional, organism-based; conditions: dose 25-100 µM
[36] = system: Influenza A virus; test: Inhibition of Hemagglutinin in Influenza A virus

## COc1ccc2c(c1)c(-c1ccccc1)c(NS(C)(=O)=O)n2S(=O)(=O)c1ccc(C)cc1
[1]
  Activity: Active
[2]
  Activity: 0.89%
[3]
  Activity: Active
[4]
  Activity: Active
[5]
  Activity: Non-toxic
[6]
  Activity: 3.6%
[7]
  Activity: 17.6%
[8]
  Activity: Non-toxic
[9]
  Activity: Active
[10]
  Activity: Active
[11]
  Activity: Non-toxic
[12]
  Activity: Active; Alleviate Following Symptoms - Symptoms Of Severe Malaise, Respiratory Distress, Asthma, Messy Coat, Hunched Back, And Loss Of Appetite To Certain Extent
[13]
  Activity: inactive
[14]
  Activity: Active
[15]
  Activity: Active
[16]
  Activity: Active
[17]
  Activity: 0.83%
[18]
  Activity: Active
[19]
  Activity: Active
[20]
  EC50: 12.9 µM
[21]
  Activity: Active
[22]
  Activity: Active
[23]
  Activity: Active
[24]
  Activity: 9.21%
[25]
  Activity: Active
[26]
  CC50 at 72 h: 632 µM
[27]
  Activity: Dose-dependent-effect
[28]
  Activity: Active
[29]
  Activity: Active
[30]
  Activity: Non-toxic
[31]
  Activity: Active
[32]
  Activity: Active
[33]
  Activity: Active
[34]
  Activity: Active
[35]
  Activity: Active
[36]
  inhibition: inactive
